Laboratory results published in PMC10974272, “Cytotoxic and Antiproliferative Activity of LASSBio-2208 and the Attempts to Determine Its Drug Metabolism and Pharmacokinetics In Vitro Profile” (Pharmaceuticals, 2024).
In brackets after ≈: the same amount, converted by molar mass.

Key:
PAMPA—GIT = type: in vitro ADME; conditions: for Papp: PAMPA, read-out: Pe. Exp. GIT
Description: To obtain information on the permeability potential of LASSBio-2208 on cell membranes, this derivative was tested using the parallel artificial membrane permeability assay (PAMPA) that is used as an in vitro model of passive diffusion and transcellular permeation. In this model, the permeability across two artificial membranes is measured: brain lipid from pig extract in dodecane (called PAMPA—BBB) and L-α soy phosphatidylcholine in dodecane (called PAMPA—TGI).
To perform the permeability assay we used a donor plate where the compounds (tests or controls) are diluted in a buffered medium, characterized by the presence of a synthetic membrane of polyvinylidene fluoride (PVDF) impregnated with a lipid solution, forming a barrier through which the compounds migrate through a diffusion process to the lower plate called the receptor.
The lipid mixture that impregnates the filter has a different constitution for the permeability tests for the blood–brain barrier (brain lipid from pig extract in dodecane) and gastrointestinal tract (L-α soy phosphatidylcholine in dodecane). In the PAMPA—BBB and PAMPA—GIT assays, the optical density values obtained in the reading at each selected wavelength, for each of the compounds were analysed in comparison with the values of several controls. In the case of the BBB, these values were used to elaborate an equation and determine the permeability coefficient (Pe), using a previously elaborated spreadsheet, and, for the PAMPA—GIT, these values were used to determine the absorbed fraction (Fa%), both using the Excel program. The permeability result for PAMPA—GIT classifies the compounds according to the percentage of absorbed fraction (Fa%), as follows: high intestinal permeability (70–100%), medium permeability (30–69%) or low permeability (0–29%), and the samples were diluted from a stock solution of 10 mM. The PAMPA—BBB model classifies the compounds only as follows: permeable (CNS+) or non-permeable (CNS−) and the assays were made from a stock solution of 1 mg for each compound [25, 40, 41, 42].

HDAC8 = conditions: cited from earlier work
[1] = system: human prostate cancer cell line (PC-3); assay: MTT cell viability assay, PC-3; conditions: Homo sapiens
Description: (§1) After the incubation time, the plate was centrifuged (Universal centrifuge 320R Hettich, Kirchlengern, Germany) at 440× g, 10 min and 4 °C, then 110 µL of supernatant was removed and 10 µL of MTT solution was added and left to incubate for 3.5 h in the oven at 37 °C and 5% CO2. […] The CC50 was calculated using the GraphPad Prism 9.0 program. Each sample was tested in triplicate in three independent experiments (N3) [32, 33].

[2] = system: breast cancer cell line (MCF-7); assay: MTT cell viability assay, MCF-7; conditions: Homo sapiens
Description: as §1

PC-3 = assay: SRB cell viability/antiproliferative assay, PC-3; conditions: for Emax: SRB 48 h, PC-3, maximum effect at maximum concentration used
MCF-7 = assay: SRB cell viability/antiproliferative assay, MCF-7; conditions: Homo sapiens, MCF7, 48 h; for Emax: SRB 48 h, MCF-7, maximum effect at maximum concentration used
PI3Kα = conditions: cited from earlier work
PI3Kβ = conditions: cited from earlier work
PI3Kδ = conditions: cited from earlier work
PI3Kγ = conditions: cited from earlier work
mTOR = conditions: cited from earlier work
[3] = design: method as in PMID 32022441; conditions: cited from earlier work
[4] = design: method as in PMID 32022441; conditions: cited from earlier work; remark: listed apart in the source
[5] = system: PC3 prostate carcinoma cell line; design: method as in PMID 33919077; conditions: cited from earlier work
[6] = system: PC3 prostate carcinoma cell line; design: method as in PMID 33919077; conditions: PC3, flow cytometry, 24 h assay; cited from earlier work

Row | SMILES | Fraction Absorbed (PAMPA—GIT) [%] | Papp (PAMPA—GIT) [×10⁻⁶ cm/s] | IC50 (HDAC8) [nM] | CC50 ([1]; 24 h) [µM] | Emax ([1]; 24 h) [%] | CC50 ([1]; 48 h) [µM] | Emax ([1]; 48 h) [%] | CC50 ([1]; 72 h) [µM] | Emax ([1]; 72 h) [%] | CC50 ([2]; MCF7, 24 h) [µM] | Emax ([2]; MCF7, 24 h) [%] | CC50 ([2]; MCF7, 48 h) [µM] | Emax ([2]; MCF7, 48 h) [%] | CC50 ([2]; MCF7, 72 h) [µM] | Emax ([2]; MCF7, 72 h) [%] | CC50 (PC-3; Homo sapiens, PC-3, 48 h) [µM] | Emax (PC-3; Homo sapiens, PC-3, 48 h) [%] | CC50 (MCF-7) [µM] | Emax (MCF-7) [%] | other results
1 | CN(C)c1ccc(C(=O)N/N=C/c2ccc(C(=O)NO)cc2)cc1 [LASSBio-1911] | 20.15 | 0.359 | 230 | > 100 | 26.4 | > 100 | 42.6 | 77.1 | 59.2 | > 100 | 21.6 | 42.6 | 65.4 | 38.4 | 75.4 | > 100 | < 35 | 39.1 | > 80 | Pe. Exp. GIT (PAMPA—GIT): 0.592 10^−6 cm/s; Emax (PC-3): 34.04%
2 | O=C(NO)c1ccc(/C=N/NC(=O)c2cc(N3CCOCC3)nc(-c3cccc(O)c3)n2)cc1 [LASSBio-2208] | 13.78 | 0.39 | 67.6 | > 100 | 18.4 | > 100 | 39.3 | > 100 | 42.1 | > 100 | 29.5 | 31.7 | 57.3 | 23 | 60.7 | 98.9 | > 50 | 5.44 | 67.4 | IC50 (PI3Kα): 46.3 nM; IC50 (PI3Kβ): 72.8 nM; IC50 (PI3Kδ): 72.4 nM; IC50 (PI3Kγ): 1300 nM; IC50 (mTOR): 464 nM; aqueous solubility (thermodynamic solubility) [3]: 1.81 µM (≈ 0.837 µg/mL); calculated logP [4]: 1.96; reduction of cell viability ([5]; PC3, MTT 24 h, highest concentration studied (5 µM)): ~50%; effect on cell viability ([5]; PC3, MTT 48 h, 0.01–5 µM): no effect on cell viability; cell cycle effect [6]: cell cycle arrest in the G2/M phase; initial cell apoptosis, share of cell population [6]: 60–66%
